Assay results: US20220125893A1, “METHODS FOR TREATING ARTHRITIS USING SPL-108 PEPTIDE” (Splash Pharmaceuticals, Inc., priority 2019, published 2022)

Legend:
[1] = tested on: CIA mice; test: Collagen-induced arthritis (CIA) mouse model; format: in vivo
Source text: FIGS. 10A, 10B, 10C, 10D, and 10E show histology and histological scores in ankles collected at the end of the experiments. At the end of the experiment, ankle bones were collected and decalcified in EDTA for 10 days. Decalcified bones were embedded and sagittal sections obtained and stained. H&E staining was used to help score cell infiltration, synovial thickness, and bone damage (FIG. 10A). In the figure, safranin staining will help to score cartilage damage. Black arrows show infiltration in arthritic mice treated with PBS compared to control mice without arthritis. White arrows show lack of safranin staining in the arthritic mice cartilage because of proteoglycan degradation compared to control mice without arthritis.
In the examples below, mice were used in a collagen-induced arthritis (CIA) model, a commonly used model to examine pathogenesis of rheumatoid arthritis. […] At day 0, mice were immunized with type II collagen/CFA. […] Arthritis onset subsequently occurs 4-10 days after the day 28 LPS injection. The experimental groups consisted of four groups: group 1: 6 CIA mice treated with vehicle; group 2: 6 CIA mice treated with […] SPL-108 twice a day, starting at arthritis onset (between day 32 to 36); group 3: 6 CIA mice treated with 100 mg/kg SPL-108 twice a day, starting at arthritis onset (between day 32 to 36); and group 4: 6 mice without CIA and not treated (negative control). In preventive strategies, a prophylactic treatment of SPL-108 would be started at day 0, at the time of first immunization.
FIGS. 10A, 10B, 10C, 10D, and 10E show histological scores of ankle bones collected at the end of experiments. At the end of the experiment, ankles were collected and decalcified in EDTA for 10 days. They were embedded and sagittal sections were obtained and stained. H&E staining was used to help score cell infiltration, synovial thickness, and bone damage. In the figure, safranin staining will help to score cartilage damage. Black arrows show infiltration in arthritic mice treated with PBS compared to control mice without arthritis. White arrows show lack of safranin staining (red) in the arthritic mice cartilage because of proteoglycan degradation compared to control mice without arthritis.

[2] = tested on: pre-existing osteoarthritis; test: Osteoarthritis symptoms in ovarian cancer patients on SPL-108 plus paclitaxel; format: in vivo, human; settings: two patients; SPL-108 150 mg twice a day with paclitaxel 80 mg/m^2 weekly on Days 1, 8, 15, three 28-day cycles
Experimental: Two patients diagnosed with […] ovarian cancer, and enrolled in a clinical trial for evaluating the efficacy of SPL-108 in combination with paclitaxel (standard-of-care treatment), reported relief from symptoms of pre-existing osteoarthritis. Each patient received SPL-108 150 mg twice a day and Paclitaxel 80 mg/m^2 weekly on Days 1, 8, and 15, in three 28-day cycles. Each patient received a total of 25,200 mg of SPL-108 over the course of treatment.

[3] = tested on: fibroblast-like synoviocytes (FLSs); test: In vitro Scratch migration assay of FLSs; format: cell-based; settings: 0.1, 1.0, 10.0, 100 μM
Experimental: Cells were grown to confluence and a thin “wound” was introduced by scratching with a pipette tip. Cells at the wound edge polarize and migrate into the wound space.

[4] = tested on: arthritis-induced osteoclastogenesis; settings: other animal studies; cited from earlier work
[5] = tested on: fibroblast-like synoviocytes (FLSs); test: In vitro Matrigel invasion assay of FLSs; format: cell-based; settings: 0.1, 1.0, 10.0, 100 μM; presence and absence of PDGF 10 ng/mL
Experimental: FIG. 8A and FIG. 8B show the effects of SPL-108 (A6) on the invasion of FLSs using an in vitro Matrigel invasion assay. Platelet-derived growth factor (10 ng/mL) was used to stimulate invasion and the area of invasion was measured in […] before and after the addition of 0.1, 1.0, 10.0, and 100 μM SPL-108 (A6) in the presence and absence of PDGF.

[6] = ankles at end of experiment, H&E staining
[7] = either dose (50 or 100 mg/kg twice a day)

Substance: Ac-KPSSPPEE-NH2 [SPL-108]
- clinical score vs vehicle, significance ([1]; 50 mg/kg twice a day): significantly different at day 4, 5, 6, 7
- paw swelling vs vehicle, significance ([1]; 50 mg/kg twice a day): significantly different from day 11 to day 19
- body weight vs vehicle, significance ([1]; 50 mg/kg twice a day from arthritis onset): significantly different at day 7 and 9
- clinical score vs vehicle, significance ([1]; 100 mg/kg twice a day): significantly different from day 4 to day 20
- paw swelling vs vehicle, significance ([1]; 100 mg/kg twice a day): significantly different from day 11 to day 19
- body weight vs vehicle, significance ([1]; 100 mg/kg twice a day from arthritis onset): significantly different at day 5, 7, 9 and 11
- body weight decrease ([1]; CIA mice, through 11 days after disease onset, vehicle 3 grams decrease): ~1 gram
- bone damage (histological score) [1, 6]: reduction
- synovial hypertrophy (histological score) [1, 6]: reduction
- synovial infiltration (histological score) [1, 6]: reduction
- cartilage damage (histological score) ([1]; ankles at end of experiment, safranin staining): reduction
- clinical score compared to vehicle [1, 7]: lower
- paw swelling (paw size) compared to vehicle [1, 7]: lower
- improvement in osteoarthritis symptoms [2]: reduction to elimination of joint pain
- migration of FLSs into wound space [3]: inhibited the migration of FLSs in a dose-dependent manner
- arthritis-induced osteoclastogenesis [4]: inhibited arthritis-induced osteoclastogenesis
- invasion of FLSs (area of invasion) [5]: inhibited the invasion of FLSs in a dose-dependent manner
